Among the data in ChEMBL document CHEMBL3886463, “Triazolopyridine compounds” (2016) are IC50 values, retold here.

This assay deals with cAMP and cAMP-inhibited cGMP 3',5'-cyclic phosphodiesterase 10A (Homo sapiens, UniProt Q9Y233). The experiment in a line: Inhibition Assay: The human PDE10A full length assay was performed in 96-well micro titer plates. The reaction mixture of 50 ul contained 20 mM HEPES pH=7.5/10 mM MgCl2/0.05 mg/ml BSA (Sigma cat. # A-7906), 50 nM cGMP (Sigma, cat. # G6129) and 50 nM [3H]-cGMP (GE Healthcare, cat. # TRK392 S.A. 13.2 Ci/mmol), 3.75 ng/well PDE10A enzyme (Enzo Life Science, Lausen, Switzerland cat # SE-534) with or without a specific test compound. A range of concentrations of the potential inhibitor was used to generate data for calculating the concentration of inhibitor resulting in 50% of the effect (e.g. IC50, the concentration of the competitor inhibiting PDE10A activity by 50%). Non-specific activity was tested without the enzyme. The reaction was initiated by the addition of the substrate solution (cGMP and [3H]-cGMP) and allowed to progress for 20 minutes at room temperature. The reaction was terminated by adding 25 ul of YSi-SPA scintillation beads (GE Healthcare, cat. # RPNQ0150) in 18 mM zinc sulphate.
Sequence of cAMP and cAMP-inhibited cGMP 3',5'-cyclic phosphodiesterase 10A (Q9Y233 whole entry): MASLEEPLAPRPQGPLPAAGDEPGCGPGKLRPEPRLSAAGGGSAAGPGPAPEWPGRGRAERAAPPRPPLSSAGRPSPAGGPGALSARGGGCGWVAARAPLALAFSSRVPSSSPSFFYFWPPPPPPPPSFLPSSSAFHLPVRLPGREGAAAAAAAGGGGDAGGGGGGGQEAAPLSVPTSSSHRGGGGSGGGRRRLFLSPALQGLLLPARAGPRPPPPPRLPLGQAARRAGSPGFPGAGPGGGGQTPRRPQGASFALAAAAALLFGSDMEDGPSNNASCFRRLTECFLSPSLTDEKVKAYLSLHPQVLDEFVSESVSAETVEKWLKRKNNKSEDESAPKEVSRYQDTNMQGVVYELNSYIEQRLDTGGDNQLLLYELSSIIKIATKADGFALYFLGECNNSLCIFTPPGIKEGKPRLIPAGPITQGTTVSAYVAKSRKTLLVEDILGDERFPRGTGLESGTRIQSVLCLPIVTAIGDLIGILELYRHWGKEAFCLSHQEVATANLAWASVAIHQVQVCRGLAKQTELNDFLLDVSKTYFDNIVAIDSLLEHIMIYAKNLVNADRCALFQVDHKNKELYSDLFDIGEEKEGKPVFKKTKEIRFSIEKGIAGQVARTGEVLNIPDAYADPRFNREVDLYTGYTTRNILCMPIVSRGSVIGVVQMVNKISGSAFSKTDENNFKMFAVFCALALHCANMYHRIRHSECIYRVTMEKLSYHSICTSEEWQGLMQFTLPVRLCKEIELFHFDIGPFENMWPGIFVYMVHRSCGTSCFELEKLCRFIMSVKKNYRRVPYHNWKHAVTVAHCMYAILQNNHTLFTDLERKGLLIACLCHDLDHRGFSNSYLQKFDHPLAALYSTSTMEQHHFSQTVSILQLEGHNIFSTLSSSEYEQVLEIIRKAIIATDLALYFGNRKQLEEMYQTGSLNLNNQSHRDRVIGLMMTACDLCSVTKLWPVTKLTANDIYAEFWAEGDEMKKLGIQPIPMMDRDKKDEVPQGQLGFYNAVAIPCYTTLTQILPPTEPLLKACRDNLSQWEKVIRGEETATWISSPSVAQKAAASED

Broadly, the IC50 is the concentration that inhibits the measured activity by half. For the compound `CCN(CC)c1nc2ccc(NC(=O)c3c(C(=O)N4CCCC4)cnn3C)cn2n1`, the IC50 was 3.3 nM.

For the compound `Cn1ncc(C(=O)N2CCC2)c1C(=O)Nc1ccc2nc(N3CCOCC3)nn2c1`, the IC50 is 23.1 nM.
